Literature values in patent US10285958B2, “Genotype- or phenotype-based drug formulation” (BAYER AKTIENGESELLSCHAFT, priority 2012, dated 2019).
Read-outs that look alike come from different tables or passages of the source.

Key:
[1] = target: polymorphic cytochrome P450 (CYP) 2D6 (Homo sapiens, UniProt P10635); conditions: humans
polymorphic cytochrome P450 (CYP) 2D6, sequence (P10635 whole entry): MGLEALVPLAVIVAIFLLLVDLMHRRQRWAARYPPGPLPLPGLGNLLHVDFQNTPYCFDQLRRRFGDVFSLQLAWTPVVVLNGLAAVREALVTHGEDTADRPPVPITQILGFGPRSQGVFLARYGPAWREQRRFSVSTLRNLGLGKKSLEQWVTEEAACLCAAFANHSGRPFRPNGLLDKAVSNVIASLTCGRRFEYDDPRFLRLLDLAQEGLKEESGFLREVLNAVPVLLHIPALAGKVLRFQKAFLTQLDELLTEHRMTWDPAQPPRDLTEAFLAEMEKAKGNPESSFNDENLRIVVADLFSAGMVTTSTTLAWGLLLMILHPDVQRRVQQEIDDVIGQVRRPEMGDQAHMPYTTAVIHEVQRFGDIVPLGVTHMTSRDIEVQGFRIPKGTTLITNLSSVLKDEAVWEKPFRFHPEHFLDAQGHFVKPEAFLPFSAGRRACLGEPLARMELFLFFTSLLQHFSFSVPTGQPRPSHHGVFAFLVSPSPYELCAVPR

SMILES: CC/C(=C(\c1ccccc1)c1ccc(OCCNC)cc1)c1ccccc1 [N-desmethyltamoxifen]
- formation of endoxifen from N-desmethyltamoxifen via CYP2D6 [1]: exclusively

SMILES: CC/C(=C(\c1ccc(O)cc1)c1ccc(OCCNC)cc1)c1ccccc1 [endoxifen]
- endoxifen concentration in blood under tamoxifen therapy (CYP2D6 IM, versus EM or UM phenotype): distinctly below
- endoxifen concentration in blood under tamoxifen therapy (CYP2D6 PM): very low

SMILES: CC/C(=C(\c1ccccc1)c1ccc(OCCN(C)C)cc1)c1ccccc1 [tamoxifen]
- time until steady-state concentration of endoxifen is achieved (standard dosage 20 mg of tamoxifen, European patients of CYP2D6 EM genotype or phenotype): about 80 days
- endoxifen concentrations after increased tamoxifen dose (up to 40 mg of tamoxifen per day as two individual doses, CYP2D6 IMs and PMs, versus EMs on 20 mg): did not lead to the endoxifen concentrations observed in CYP2D6 EMs
